Results taken from PMC6175634 (Molecular genetics and metabolism, 2018).

Biological target: T1, sulfamidase (wild-type mouse DBS) (Mus musculus, UniProt Q9EQ08)
T1 sequence (Q9EQ08 23-502): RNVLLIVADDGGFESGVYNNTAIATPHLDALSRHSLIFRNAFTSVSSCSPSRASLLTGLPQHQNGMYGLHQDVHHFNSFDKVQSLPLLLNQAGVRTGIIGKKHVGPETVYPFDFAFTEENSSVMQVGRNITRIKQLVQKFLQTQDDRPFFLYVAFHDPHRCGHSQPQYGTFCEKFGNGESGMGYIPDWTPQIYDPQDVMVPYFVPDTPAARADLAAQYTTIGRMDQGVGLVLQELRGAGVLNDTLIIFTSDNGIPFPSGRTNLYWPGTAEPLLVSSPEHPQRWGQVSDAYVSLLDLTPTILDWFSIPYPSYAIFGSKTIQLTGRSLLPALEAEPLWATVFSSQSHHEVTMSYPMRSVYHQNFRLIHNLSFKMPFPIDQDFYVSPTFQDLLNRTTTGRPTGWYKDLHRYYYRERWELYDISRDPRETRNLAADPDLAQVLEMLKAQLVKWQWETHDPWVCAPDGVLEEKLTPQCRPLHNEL
Assay: LC-MS/MS product formation in dried blood spot, knockout mouse control
Format: biochemical
Details: 1 mM substrate, otherwise same

O=S(=O)(O)N[C@H]1[C@@H](Oc2ccc3ccccc3c2)O[C@H](CO)[C@@H](O)[C@@H]1O [MPS-IIIA-S, 2-sulfamate-2-deoxy-1-α-(2-naphthyl)-glucopyranoside]
LC-MS/MS product formation in dried blood spot, knockout mouse control: sulfamidase activity was readily detected in a DBS made using blood from a wild-type mouse
